These results are taken from patent US6019997A, “Hydroalcoholic compositions for transdermal penetration of pharmaceutical agents” (priority 1997, dated 2000).

Assay type in all cases: physicochemical
Data set [1] in a line: Viscosity (Brookfield LVDV-I+ viscometer, 23° C.). The settings on record: result in words. The method, then:
In the following Examples (except where indicated) viscosity was measured at 23° C. at ambient pressure using a Brookfield LVDV-I^+ viscometer equipped with a model D Brookfield heliopath and T spindles B-F. The spindle and speed was chosen for each particular sample such that the viscometer was operating in the middle of its range. All samples were allowed to equilibrate at 23° C. for 24 hours prior to measurement. Preferably the viscosity is taken at the lowest speed possible while staying within 20-80% of the viscometer range and more preferably between 30-70% of the range. In all cases the sample size and container geometry was chosen to ensure that there were no wall effects. By "wall effects" it is meant the viscosity value is not affected by the container and is essentially equivalent to the viscosity taken in an infinitely large container. For this reason lower viscosity samples required a larger sample size to accommodate the larger spindles. The following table outlines preferred spindles for various sample viscosities.
The viscosity of each sample was taken as the highest relatively stable reading achieved on the first path the spindle traversed using the heliopath adapter.

The next data set can be described thus: Melt temperature (Tm). The settings on record: result in words. The method, then:
The melt temperature was measured by placing approximately 15 grams sample in a 25 cc sealed glass vial and placing the vial in a water bath. The temperature of the bath was increased periodically in discrete increments and the contents checked after approximately 1 hour at a given temperature. The melt temperature was taken as the temperature at which the mixture became very low in viscosity.

The next data set can be described thus: Emulsion stability. The settings on record: concentrations below about 1% by weight.

Regarding `CCCCCCCCCCCCCCCC` [hexadecane], the “effect of emollient on viscoelasticity of certain emulsifier systems” value in data set [1] is recorded as “can increase the viscoelasticity of certain emulsifier systems”.
For the molecule `CCCCCCCCCCCCOCCOCCOCCOCCO` [laureth-4], in “Melt temperature (Tm)”, the “effect of emollient on melt temperature of the composition” value is “tends to decrease the melt temperature of the composition”. Further, the “phase separation when heated above the melt temperature” value in the data set “Emulsion stability” is “does not phase out”.
As for trioctyldodecyl citrate, the “effect of emollient on melt temperature of the composition” value in the data set “Melt temperature (Tm)” is on record as “significantly decrease the melt temperature of some systems”.
